Earlier results in patent publication US20220168203A1, “METHOD FOR PREPARING HAIR TREATMENTS AGENTS WITH ORGANIC C1-C6 ALKOXY-SILANES” (Henkel AG & Co. KGaA, priority 2019, published 2022).

Conditions: 25° C.

Row | solubility in water | solubility in water (in words) | Compound
1 | above 40 g/L | – | O=[N+]([O-])c1cc([N+](=O)[O-])c2ccc(S(=O)(=O)O)cc2c1O [Acid Yellow 9, 8-hydroxy-5,7-dinitro-2-naphthalenesulfonic acid]
2 | – | highly soluble | O=C(O)C1=NN(c2ccc(S(=O)(=O)O)cc2)C(=O)C1N=Nc1ccc(S(=O)(=O)O)cc1 (stereo not shown) [Acid Yellow 23, 4,5-dihydro-5-oxo-1-(4-sulfophenyl)-4-((4-sulfophenyl)azo)-1H-pyrazole-3-carboxylic acid]
3 | 20 mg/mL | – | Acid Yellow 3

Row | Compound | solubility in water | solubility in water (in words)
4 | O=S(=O)(O)c1ccc(N=Nc2c(O)ccc3ccccc23)cc1 [Acid Orange 7, 4-[(2-hydroxy-1-naphthyl)azo]benzene sulphonate] | more than 7 g/L | –
